Data published in publication PMC11087268, “A folate inhibitor exploits metabolic differences in Pseudomonas aeruginosa for narrow-spectrum targeting” (Nature Microbiology, 2024).

What was measured:
P. aeruginosa PA14 = assay: Growth of P. aeruginosa PA14 in TMI-supplemented media with fluorofolin; assay type: cell-based, Pseudomonas aeruginosa; settings: for OD600 of P. Aeruginosa PA14: Fluorofolin
S. aureus USA300 = assay: Growth with or without TMI supplementation and fluorofolin, S. aureus USA300; assay type: cell-based, Staphylococcus aureus; settings: fluorofolin 2X MIC
Experimental: Where listed, growth media were prepared according manufacturer recommendations: LB broth and LB broth supplemented with 0.3 mM thymine (BD Biosciences 244610, Alfa Aesar A15879), 0.3 mM methionine (Sigma-Aldrich M9625), 0.3 mM inosine (EMD Millipore 4060), cation-adjusted Mueller–Hinton II broth (CAMHB) (BD 212322) or 0.3 mM thymidine (Sigma-Aldrich T1895), Gutnick minimal media (1.0 g l^−1 K2SO4, 13.5 g l^−1 K2HPO4, 4.7 g l^−1 KH2PO4, 0.1 g l^−1 MgSO4·7H2O, 10 mM NH4Cl as a nitrogen source and 0.4% w/v glucose as a carbon source)[65].
Extended Data Fig. 3 TMI supplementation can also rescue other species from fluorofolin DHFR inhibition. […] (f) P. aeruginosa PA14 or E. coli lptd4213 treated with fluorofolin 50 μg/mL in the presence or absence of 0.3 mM thymidine. (g) E. coli lptd4213 treated with fluorofolin 50 μg/mL and SMX (78.1 μg/mL) in the presence or absence of 0.3 mM thymidine or 0.3 mM TMI supplementation, Curves represent average optical at 600 nm (OD600) of 2 biological replicates. Means are shown. Source data

Nc1nc(N)c2c(ccc3c2ccn3Cc2ccnc(F)c2)n1 [fluorofolin]
OD600 of P. Aeruginosa PA14 (P. aeruginosa PA14; Time 0 min): -0.00105 | OD600 of P. Aeruginosa PA14 (P. aeruginosa PA14; Time 64.0617 min): 0.00425 | OD600 of P. Aeruginosa PA14 (P. aeruginosa PA14; Time 74.7383 min): 0.0047 | OD600 of P. Aeruginosa PA14 (P. aeruginosa PA14; Time 85.415 min): 0.00495 | OD600 of P. Aeruginosa PA14 (P. aeruginosa PA14; Time 96.0917 min): 0.00565 | OD600 of P. Aeruginosa PA14 (P. aeruginosa PA14; Time 106.768 min): 0.006 | OD600 of P. Aeruginosa PA14 (P. aeruginosa PA14; Time 117.445 min): 0.0073 | OD600 of P. Aeruginosa PA14 (P. aeruginosa PA14; Time 128.123 min): 0.0085 | OD600 of P. Aeruginosa PA14 (P. aeruginosa PA14; Time 138.8 min): 0.00865 | OD600 of P. Aeruginosa PA14 (P. aeruginosa PA14; Time 149.477 min): 0.0096 | OD600 of P. Aeruginosa PA14 (P. aeruginosa PA14; Time 160.153 min): 0.01045 | OD600 of P. Aeruginosa PA14 (P. aeruginosa PA14; Time 170.83 min): 0.01095 | OD600 of P. Aeruginosa PA14 (P. aeruginosa PA14; Time 181.507 min): 0.01175 | OD600 of P. Aeruginosa PA14 (P. aeruginosa PA14; Time 192.183 min): 0.0127 | OD600 of P. Aeruginosa PA14 (P. aeruginosa PA14; Time 202.86 min): 0.0136 | OD600 of P. Aeruginosa PA14 (P. aeruginosa PA14; Time 213.537 min): 0.01395 | OD600 of P. Aeruginosa PA14 (P. aeruginosa PA14; Time 224.213 min): 0.01515 | OD600 of P. Aeruginosa PA14 (P. aeruginosa PA14; Time 234.89 min): 0.01575 | OD600 of P. Aeruginosa PA14 (P. aeruginosa PA14; Time 245.567 min): 0.0166 | OD600 of P. Aeruginosa PA14 (P. aeruginosa PA14; Time 256.243 min): 0.0165 | OD600 of P. Aeruginosa PA14 (P. aeruginosa PA14; Time 266.922 min): 0.01705 | OD600 of P. Aeruginosa PA14 (P. aeruginosa PA14; Time 277.598 min): 0.01815 | OD600 of P. Aeruginosa PA14 (P. aeruginosa PA14; Time 288.275 min): 0.01805 | OD600 of P. Aeruginosa PA14 (P. aeruginosa PA14; Time 298.952 min): 0.0199 | OD600 of P. Aeruginosa PA14 (P. aeruginosa PA14; Time 309.628 min): 0.0191 | OD600 of P. Aeruginosa PA14 (P. aeruginosa PA14; Time 320.305 min): 0.0205 | OD600 of P. Aeruginosa PA14 (P. aeruginosa PA14; Time 330.982 min): 0.01975 | OD600 of P. Aeruginosa PA14 (P. aeruginosa PA14; Time 341.658 min): 0.0208 | OD600 of P. Aeruginosa PA14 (P. aeruginosa PA14; Time 352.335 min): 0.0206 | OD600 of P. Aeruginosa PA14 (P. aeruginosa PA14; Time 363.012 min): 0.02055 | OD600 of P. Aeruginosa PA14 (P. aeruginosa PA14; Time 373.688 min): 0.0208 | OD600 of P. Aeruginosa PA14 (P. aeruginosa PA14; Time 384.365 min): 0.02105 | OD600 of P. Aeruginosa PA14 (P. aeruginosa PA14; Time 395.042 min): 0.02085 | OD600 of P. Aeruginosa PA14 (P. aeruginosa PA14; Time 405.718 min): 0.02185 | OD600 of P. Aeruginosa PA14 (P. aeruginosa PA14; Time 416.395 min): 0.02155 | OD600 of P. Aeruginosa PA14 (P. aeruginosa PA14; Time 427.072 min): 0.02275 | OD600 of P. Aeruginosa PA14 (P. aeruginosa PA14; Time 437.748 min): 0.02165 | OD600 of P. Aeruginosa PA14 (P. aeruginosa PA14; Time 448.425 min): 0.0225 | OD600 of P. Aeruginosa PA14 (P. aeruginosa PA14; Time 459.102 min): 0.0221 | OD600 of P. Aeruginosa PA14 (P. aeruginosa PA14; Time 469.78 min): 0.0226 | OD600 of P. Aeruginosa PA14 (P. aeruginosa PA14; Time 480.457 min): 0.02355 | OD600 of P. Aeruginosa PA14 (P. aeruginosa PA14; Time 491.133 min): 0.02265 | OD600 of P. Aeruginosa PA14 (P. aeruginosa PA14; Time 501.81 min): 0.02275 | OD600 of P. Aeruginosa PA14 (P. aeruginosa PA14; Time 512.487 min): 0.023 | OD600 of P. Aeruginosa PA14 (P. aeruginosa PA14; Time 523.163 min): 0.02375 | OD600 of P. Aeruginosa PA14 (P. aeruginosa PA14; Time 533.84 min): 0.02255 | OD600 of P. Aeruginosa PA14 (P. aeruginosa PA14; Time 544.517 min): 0.02295 | OD600 of P. Aeruginosa PA14 (P. aeruginosa PA14; Time 555.193 min): 0.0233 | OD600 of P. Aeruginosa PA14 (P. aeruginosa PA14; Time 565.87 min): 0.02345 | OD600 of P. Aeruginosa PA14 (P. aeruginosa PA14; Time 576.547 min): 0.0235 | rescue of growth inhibition by TMI supplementation (P. aeruginosa PA14; P. aeruginosa PA14, 0.3 mM TMI, fluorofolin 2× MIC): unable to rescue | rescue of growth inhibition by TMI supplementation (S. aureus USA300): could also be rescued from fluorofolin growth inhibition by TMI supplementation
